Data as given in patent EP0263506B1, “Anticonvulsant composition containing amino acid derivative and use of said amino acid derivative” (priority 1986, dated 1988).
Like-named read-outs stand apart in the source and are kept apart here. Marks after values point to notes of the source that are not given here.

How the values were obtained:
[1] = tested on: Maximal electroshock seizures (MES); experiment: Maximal electroshock seizure test (MES); type: in vivo, mice; details: Mus musculus, read-out: MES ED50
Protocol: (§1) in the eye prior to application of the electrodes so as to prevent the death of the animal. Protection in this test was defined as the abolition of the hind limb tonic extension component of the seizure. The Subcutaneous Pentylenetetrazole (Metrazol^R) Seizure Threshold Test (sc Met) entailed the administration of 85 mg/kg of pentylenetetrazole as a 0.5% solution subcutaneously in the posterior midline. […] Protection was defined as the failure to observe even a threshold seizure (a single episode of clonic spasms of at least 5 sec duration). The effects of the compounds on forced and spontaneous motor activity were evaluated in mice using the Rotorod Test (Tox) or, in some cases, as indicated herein, a horizontal screen assay (HS). The animal was placed on a one-inch diameter knurled plastic rod rotating at 6 rpm after the administration of the drug. Normal mice can remain on a rod rotating at this speed indefinitely. Neurologic toxicity was defined as the failure of the animal to remain on the rod for one minute. The MES and so Met Tests were conducted on single animals while four mice were utilized for the Tox Test. The dose effect behavior of the compounds was evaluated using the above-described procedures by the administration of varying dose levels, treating normally eight mice at each dose. Table I includes an evaluation of the Median Effective Dose (ED50) and the Median Toxic Dose (TD50) of representative compounds. Mice were tested with varying doses of the anticonvulsant to define the limits of complete protection (or toxicity) and no protection (or no toxicity), as well as three points in between these limits. The Median Effective Dose (ED50) was defined as the dose which produced the Pharmacology. […] N-Acetyl-D,L-alanine-N'-benzylamide was tested at […] as well. […] Maximal electroshock seizures (MES) were elicited with a 60 cycle alternating current of 50 mA intensity (5-7 times that necessary to elicit minimal electroschock seizures) delivered for 0.2 sec via corneal electrodes. A drop of 0.9% saline was instilled desired endpoint in 50% of the animals. The Median Toxicity Dose (TD50) was the dose which elicited evidence of minimal neurological toxicity in 50% of the animals.

[2] = Horizontal screen assay (HS), neurologic toxicity; type: in vivo; details: mouse; mice; Median Toxic Dose; evaluated using a horizontal screen assay (HS) as opposed to the Rotorod Test; read-out: Tox TD50
Protocol: as §1
The TD50 of D,L-α-acetamido-N-benzyl-3-thiopheneacetamide, D,L-α-acetamido-N-benzyl-2-thiopheneacetamide, D,L-α-acetamido-N-benzyl-2-furanacetamide, D,L-α-acetamido-N-benzyl-2-pyrroleacetamide, D,L-2-acetamido-N-benzyl-2-ethoxyacetamide and D,L-2-acetamido-N-benzyl-2-methoxyacetamide were evaluated using a horizontal screen assay (HS) as opposed to the Rotorod Test.

pentylenetetrazole = experiment: Subcutaneous Pentylenetetrazole (Metrazol) Seizure Threshold Test (sc Met); type: in vivo, mice; details: for ED50: Mus musculus, sc, 0.5 h, read-out: sc Met ED50
Protocol: as §1

[3] = tested on: male Carworth Farms #1 mice; experiment: Rotorod Test (Tox), neurologic toxicity; type: in vivo; details: Median Toxic Dose, comparison drugs
Protocol: The effects of the compounds on forced and spontaneous motor activity were evaluated in mice using the Rotorod Test (Tox) or, in some cases, as indicated herein, a horizontal screen assay (HS). The animal was placed on a one-inch diameter knurled plastic rod rotating at 6 rpm after the administration of the drug. Normal mice can remain on a rod rotating at this speed indefinitely. Neurologic toxicity was defined as the failure of the animal to remain on the rod for one minute. The MES and so Met Tests were conducted on single animals while four mice were utilized for the Tox Test. The dose effect behavior of the compounds was evaluated using the above-described procedures by the administration of varying dose levels, treating normally eight mice at each dose. […] Mice were tested with varying doses of the anticonvulsant to define the limits of complete protection (or toxicity) and no protection (or no toxicity), as well as three points in between these limits. […] The Median Toxicity Dose (TD50) was the dose which elicited evidence of minimal neurological toxicity in 50% of the animals.

[4] = mice, 50 mA, 60 cycle, 0.2 sec via corneal electrodes, abolition of hind limb tonic extension
[5] = mice, 85 mg/kg pentylenetetrazole subcutaneously, observed for 30 minutes

SMILES	ED50 [1] [mg/kg]	TD50 [2] [mg/kg]	ED50 [1, 4] [mg/kg]	further results
CCOC(NC(C)=O)C(=O)NCc1ccccc1 (racemic) [D,L-2-Acetamido-N-benzyl-2-ethoxyacetamide]	62	> 112	–	–
COC(NC(C)=O)C(=O)NCc1ccccc1 (racemic) [D,L-2-Acetamido-N-benzyl-2-methoxyacetamide]	98.3	< 300	–	–
CC(=O)NC(C(=O)NCc1ccccc1)c1ccco1 (racemic) [D,L-α-Acetamido-N-benzyl-2-furanacetamide]	10.3	40	–	–
CC(=O)NC(C(=O)NCc1ccccc1)c1ccc[nH]1 (racemic) [D,L-α-Acetamido-N-benzyl-2-pyrroleacetamide]	16.1	< 100	–	–
CC(=O)NC(C(=O)NCc1ccccc1)c1cccs1 (racemic) [D,L-α-Acetamido-N-benzyl-2-thiopheneacetamide]	44.8	30 to 100	–	–
CC(=O)NC(C(=O)NCc1ccccc1)c1ccsc1 (racemic) [D,L-α-Acetamido-N-benzyl-3-thiopheneacetamide]	87.8	> 100	–	–
CCC1(c2ccccc2)NC(=O)N(C)C1=O (stereo not shown) [mephenytoin]	–	–	61	ED50 (pentylenetetrazole; [5]): 31 mg/kg; Tox TD50 [3]: 154 mg/kg
NC(=O)NC(=O)Cc1ccccc1 [phenacemide]	–	–	87	ED50 (pentylenetetrazole; [5]): 116 mg/kg; Tox TD50 [3]: 421 (337-549)* mg/kg
CCC1(c2ccccc2)C(=O)NC(=O)NC1=O [phenobarbital, reference compound]	22	–	–	ED50 (pentylenetetrazole): 13 mg/kg
O=C1NC(=O)C(c2ccccc2)(c2ccccc2)N1 [phenytoin, reference compound]	–	–	10	sc Met ED50 (pentylenetetrazole; [5]): not effective
